Laboratory results taken from patent US20260144769A1, “4-PHENYLBUTYRATE RESTORED GABA UPTAKE AND REDUCED SEIZURES IN SLC6A1 VARIANT-MEDIATED DISORDERS” (Vanderbilt University, priority 2022, published 2026).

Molecular target: T1, GAT-1 in corrected isogenic control astrocytes (Homo sapiens, UniProt P30531)
T1 construct: endogenous in cells; host or cells: astrocytes differentiated from CRISPR-corrected isogenic control iPSCs
Assay: 3H GABA uptake, corrected isogenic control iPSC derived astrocytes
Type: cell-based
Details: PBA 2 mM, 24 hrs
Protocol: Live images of human neural progenitor cells (NPCs), astrocytes and GABAergic inhibitory neurons differentiated from the human induced pluripotent stem cells (iPSCs) on the day of experiment. […] The DMSO treated corrected or patient cells was taken as 1. […] GABA flux was measured after 30 min transport at room temperature. The influx of GABA, expressed in pmol/μg protein/min, was averaged from duplicates for each condition and for each transfection. The average counting was DMSO treated condition taken as 1. In FIG. 5B, FIG. 5D and FIG. 5F, 966 stands for CI-966 (50 μM) and 711 stands for NNC-711 (35 μM) that was applied 30 min to the astrocytes transfected with the wildtype GAT-1^YFP before preincubation and removed during preincubation. In FIGS. 5B and D, ***p<0.001 vs. corrected DMSO treated. § § <0.01, § § § p<0.001 vs. patient DMSO treated. […] In FIGS. 5B-E, n=4-8 batches of cells. In FIG. 5F, n=4-5 different transfections). Unpaired t test was used for FIG. 5C and FIG. 5E. […] Values were expressed as mean±S.E.M.). […]
Briefly, cells were cultured in […] dishes for 3 days before the GABA uptake experiment in DMEM with 10% fetal bovine serum and 1% penicillin/streptomycin. […] Glacial acetic acid was added, and lysates were then determined on a liquid scintillator with QuantaSmart. […]

T1 sequence (P30531 whole entry): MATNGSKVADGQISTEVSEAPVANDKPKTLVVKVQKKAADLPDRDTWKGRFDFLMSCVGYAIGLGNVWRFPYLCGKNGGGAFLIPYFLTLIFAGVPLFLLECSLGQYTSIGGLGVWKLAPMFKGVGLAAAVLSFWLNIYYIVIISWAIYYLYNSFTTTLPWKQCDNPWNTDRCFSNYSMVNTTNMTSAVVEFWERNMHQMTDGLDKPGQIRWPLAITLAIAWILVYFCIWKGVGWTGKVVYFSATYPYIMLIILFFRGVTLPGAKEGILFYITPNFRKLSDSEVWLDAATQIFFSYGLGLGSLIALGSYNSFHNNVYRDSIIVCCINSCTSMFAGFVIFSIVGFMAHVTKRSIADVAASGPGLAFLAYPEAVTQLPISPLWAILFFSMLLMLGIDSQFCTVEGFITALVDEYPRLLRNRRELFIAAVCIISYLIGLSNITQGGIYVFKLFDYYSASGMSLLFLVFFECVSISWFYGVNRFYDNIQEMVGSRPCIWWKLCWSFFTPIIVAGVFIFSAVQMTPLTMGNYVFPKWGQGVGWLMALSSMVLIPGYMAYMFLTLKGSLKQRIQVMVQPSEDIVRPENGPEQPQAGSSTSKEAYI

GABA uptake normalized to its DMSO treated: 1.173±0.026
SMILES: O=C(O)CCCc1ccccc1 [PBA, 4-phenylbutyric acid]
